Laboratory results taken from US4132847A, “4-Pyrone prostaglandin antagonists” (Pfizer Inc., priority 1977, dated 1979).

System: accumulation of c-AMP by PGE2
Assay: Antagonism of PGE2-enhanced c-AMP levels in mouse thymus cells (radioimmunoassay)
Format: cell-based
Excerpt: A suitable test for this purpose is based on the enhancement of cyclic AMP (adenosine-3',5'-monophosphate) levels in tissues due to adenyl cyclase stimulated by the action of prostaglandins of the PGE2 type. An exemplification of such a test used to determine the antagonist activity of the compounds of the present invention is as follows. A BC 57/BL (Jackson Laboratories) mouse is sacrificed and the thymus gland removed and teased apart to provide thymus cells which are suspended in a culture medium. The degradation of c-AMP is blocked by addition of 4-(3-butoxy-4-methoxybenzyl)-2-imidazolidinone (Hoffman-LaRoche, Ro 20-1724), a c-AMP phosphodiesterase inhibitor. A measured dose of the compound under test is added to the suspension of cells and the suspension is incubated at 37° C. for ten minutes. A measured dose of PGE2 is added to the suspension, which is then incubated for a further period of 30 minutes. The cells are then centrifuged, washed and the c-AMP extracted with ethanol. The ethanol extract is evaporated to dryness, redissolved in buffer solution and the c-AMP level determined by a radioimmunoassay, see Zimmerman et al, Anal. Biochem. 71, 79 (1976) and Steiner et al, J. Biol. Chem. 247, 1106 (1972). Comparison of the enhancement of c-AMP levels produced by PGE2 alone and by PGE2 together with the compound under test allow determination of the antagonist activity.
An example of the results from this test are those obtained with 2-(3-hydroxy-trans-1-octenyl)-3-(5-carboethoxypentyloxy)-4-pyrone. The initial c-AMP level of the cell culture was measured as 1.9 ± 0.7 picomole c-AMP/10^7 cells. Incubation with 10^-5 M PGE2 alone enhanced the level to 88 ± 7 picomole c-AMP/10^7 cells. By comparison, when the cells were incubated for ten minutes with 7 × 10^-5 M of the test compound the c-AMP level was measured at 2 ± 0.1 picomole c-AMP/10^7 cells. Following incubation for 30 minutes with 10^-5 M PGE2 the level was measured as 51 ± 5 picomole c-AMP/10^7 cells. Similarly, in a second experiment, after ten minutes incubation with 7 × 10^-6 M of the test compound, the c-AMP level was measured at 1.4 ± 0.2 picomoles c-AMP/10^7 cells; after 30 minutes incubation with 10^-5 M PGE2 the c-AMP level was measured as 69 ± 8 picomoles c-AMP/10^7 cells. […] Both of these compounds are well known in the art as prostaglandin antagonists.

CCCCCC(O)/C=C/c1occc(=O)c1OCCCCCC(=O)OCC (racemic) [2-[(3RS)-3-hydroxy-trans-1-octenyl]-3-(5-carboethoxypentyloxy)-4-pyrone]
c-AMP level (7 × 10^-5 M test compound, then 30 minutes with 10^-5 M PGE2 (PGE2 alone 88 ± 7)): 51 ± 5 picomole c-AMP/10^7 cells
c-AMP level (second experiment, 7 × 10^-6 M test compound, then 30 minutes with 10^-5 M PGE2): 69 ± 8 picomoles c-AMP/10^7 cells
c-AMP level (second experiment, ten minutes with 7 × 10^-6 M test compound, before PGE2): 1.4 ± 0.2 picomoles c-AMP/10^7 cells
c-AMP level (thymus cells incubated ten minutes with 7 × 10^-5 M test compound, before PGE2): 2 ± 0.1 picomole c-AMP/10^7 cells

CC(=O)NNC(=O)N1Cc2ccccc2Oc2ccc(Cl)cc21 [SC-19220, reference compound]
inhibition at 50 µM (Mus musculus, 5 × 10^-5 M, same test conditions): 30%

CCCCC[C@H](O)/C=C/[C@H]1[C@H](O)CC(=O)[C@@H]1C/C=C\CCCC(=O)O [PGE2, reference compound]
c-AMP level (incubation with 10^-5 M PGE2 alone (initial level 1.9 ± 0.7)): 88 ± 7 picomole c-AMP/10^7 cells

CCCCCCC#C[C@H]1CCC[C@@H]1OCCCCCC(=O)O [7-oxa-13-prostynoic acid, reference compound]
inhibition at 100 µM (Mus musculus, concentration of 10^-4 M, same test conditions): 45%
